Columns and labels:
BTK = molecular target: T1, BTK (Homo sapiens, UniProt Q06187); test: BTK inhibitory activity, ADP-Glo + BTK Kinase enzyme system kit (Promega); type: biochemical; details: BTK enzyme 1 ng/uL, ATP 10 uM, 15 min preincubation, luminescence, duplicate
T1 construct: purchased Promega
Protocol: (§1) The inhibitory activity against BTK and ITK of the compounds prepared in Examples above were measured as follows.
(§2) The inhibitory activity against BTK was evaluated using ‘ADP-Glo™+BTK Kinase enzyme system’ kit from Promega. […] 5 uL of substrate and 5 uL of ATP prepared at a final concentration of 10 uM were added to all wells of the plate after completion of the reaction, and allowed to react at 30° C. for 1 hour. All wells of the plate after completion of the reaction were treated with 25 uL of ADP-Glo™ reagent and reacted at 30° C. for 40 minutes. Then, 50 uL of the kinase detection buffer was applied to all wells of the plate, and then the light was blocked and reacted at 30° C. for 30 minutes. For the plate for which all reactions were completed, the luminescence was measured and the results were calculated. The evaluation was performed in duplicate. The respective values of negative and positive controls, depending on whether the enzymes were added without treatment of the compound, were determined, and IC50 was calculated based on the values.

ITK = molecular target: T2, ITK (Homo sapiens, UniProt Q08881); test: ITK inhibitory activity, ADP-Glo + ITK Kinase enzyme system kit (Promega); type: biochemical; details: ITK enzyme 0.4 ng/uL, ATP 25 uM, 15 min preincubation, luminescence, duplicate
T2 construct: purchased Promega
T2 sequence (Q08881 1-620): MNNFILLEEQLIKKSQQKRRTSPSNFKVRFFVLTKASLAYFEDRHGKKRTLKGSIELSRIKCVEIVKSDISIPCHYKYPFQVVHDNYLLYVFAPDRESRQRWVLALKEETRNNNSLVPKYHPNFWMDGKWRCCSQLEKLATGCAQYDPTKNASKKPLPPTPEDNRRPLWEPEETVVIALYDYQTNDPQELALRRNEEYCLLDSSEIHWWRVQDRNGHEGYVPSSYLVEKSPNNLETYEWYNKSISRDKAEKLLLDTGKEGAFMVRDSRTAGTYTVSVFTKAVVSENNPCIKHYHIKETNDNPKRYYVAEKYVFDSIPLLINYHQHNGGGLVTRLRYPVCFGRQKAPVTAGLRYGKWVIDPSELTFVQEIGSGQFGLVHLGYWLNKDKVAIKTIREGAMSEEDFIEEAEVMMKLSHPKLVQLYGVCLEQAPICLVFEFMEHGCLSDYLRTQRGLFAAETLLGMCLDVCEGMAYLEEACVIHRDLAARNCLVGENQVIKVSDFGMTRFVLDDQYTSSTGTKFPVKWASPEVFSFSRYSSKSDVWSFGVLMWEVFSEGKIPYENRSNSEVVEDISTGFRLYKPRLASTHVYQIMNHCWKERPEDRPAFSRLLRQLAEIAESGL
Protocol: as §1
as §2, with “ITK” for “BTK”, “‘ADP-Glo™+ITK” for “‘ADP-Glo™+BTK”, “25” for “10”

T1 sequence (Q06187 whole entry): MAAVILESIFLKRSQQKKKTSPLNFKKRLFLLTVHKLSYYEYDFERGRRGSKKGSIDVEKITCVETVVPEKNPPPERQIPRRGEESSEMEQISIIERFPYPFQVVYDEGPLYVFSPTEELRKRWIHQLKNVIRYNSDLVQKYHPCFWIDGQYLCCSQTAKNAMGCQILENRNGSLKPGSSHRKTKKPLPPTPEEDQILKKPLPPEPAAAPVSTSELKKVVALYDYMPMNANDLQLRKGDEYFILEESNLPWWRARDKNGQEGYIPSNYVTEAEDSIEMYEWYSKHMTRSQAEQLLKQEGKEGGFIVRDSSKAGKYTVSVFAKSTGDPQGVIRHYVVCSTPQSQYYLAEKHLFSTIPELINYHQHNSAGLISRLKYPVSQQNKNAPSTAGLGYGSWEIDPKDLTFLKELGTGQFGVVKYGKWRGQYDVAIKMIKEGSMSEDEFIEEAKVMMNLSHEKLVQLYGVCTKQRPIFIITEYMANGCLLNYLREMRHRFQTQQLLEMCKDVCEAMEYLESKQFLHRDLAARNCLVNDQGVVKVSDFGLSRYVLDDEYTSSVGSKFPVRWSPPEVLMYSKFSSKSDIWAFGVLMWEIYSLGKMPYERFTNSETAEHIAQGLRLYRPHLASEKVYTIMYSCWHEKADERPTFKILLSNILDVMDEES

SMILES | IC50 (BTK) [nM] | IC50 (ITK) [nM]
C=CC(=O)N1CCC[C@@H](n2nc(-c3ccc(C(=O)Nc4ccccn4)cc3F)c3c(N)ncc(I)c32)C1 [Example 50, (R)-4-(1-(1-acryloylpiperidin-3-yl)-4-amino-7-iodo-1H-pyrazolo[4,3-c]pyridin-3-yl)-3-fluoro-N-(pyridin-2-yl)benzamide] | 1.3 | 2.1
C=CC(=O)N1CC2CC1[C@H](n1nc(-c3ccc(C(=O)Nc4ccccn4)cc3F)c3c(N)nccc31)C2 (stereo partly drawn) [Example 51, 4-(1-((6R)-2-acryloyl-2-azabicyclo[2.2.1]heptan-6-yl)-4-amino-1H-pyrazolo[4,3-c]pyridin-3-yl)-3-fluoro-N-(pyridin-2-yl)benzamide] | 0.5 | 30.8
C=CC(=O)N1CCC[C@@H](n2nc(-c3ccc(C(=O)Nc4ccccc4)cc3)c3c(N)ncc(-c4cnn(C5CCOCC5)c4)c32)C1 [Example 34, (R)-4-(1-(1-acryloylpiperidin-3-yl)-4-amino-7-(1-(tetrahydro-2H-pyran-4-yl)-1H-pyrazol-4-yl)-1H-pyrazolo[4,3-c]pyridin-3-yl)-N-phenylbenzamide] | 2.3 | 293
C=CC(=O)N1CCC[C@@H](n2nc(-c3ccc(C(=O)Nc4ccccc4)cc3)c3c(N)ncc(-c4cnc(C)s4)c32)C1 [Example 32, (R)-4-(1-(1-acryloylpiperidin-3-yl)-4-amino-7-(2-methylthiazol-5-yl)-1H-pyrazolo[4,3-c]pyridin-3-yl)-N-phenylbenzamide] | 6.2 | 200
C=CC(=O)N1CCCC(n2nc(-c3ccc(Oc4ccccc4)cc3)c3c(N)ncc(Cl)c32)C1 (stereo not shown) [Example 9, 1-(3-(4-amino-7-chloro-3-(4-phenoxyphenyl)-1H-pyrazolo[4,3-c]pyridin-1-yl)piperidin-1-yl)prop-2-en-1-one] | 1.5 | 11.3
C=CC(=O)N1CCC[C@@H](n2nc(C(=O)Nc3nc4cc(Cl)ccc4o3)c3c(N)ncc(Cl)c32)C1 [Example 74, (R)-1-(1-acryloylpiperidin-3-yl)-4-amino-7-chloro-N-(5-chlorobenzo[d]oxazol-2-yl)-1H-pyrazolo[4,3-c]pyridine-3-carboxamide] | 3.3 | 6.4
C=CC(=O)N1CCC[C@@H](n2nc(-c3ccc(C(=O)Nc4ccccn4)cc3Cl)c3c(N)ncc(-c4cn[nH]c4)c32)C1 [Example 70, (R)-4-(1-(1-acryloylpiperidin-3-yl)-4-amino-7-(1H-pyrazol-4-yl)-1H-pyrazolo[4,3-c]pyridin-3-yl)-3-chloro-N-(pyridin-2-yl)benzamide] | 2 | 5.2
C=CC(=O)N1CCC[C@@H](n2nc(-c3ccc(C(=O)Nc4ccccc4)cc3)c3c(N)ncc(-c4cnn(CCN5CCOCC5)c4)c32)C1 [Example 38, (R)-4-(1-(1-acryloylpiperidin-3-yl)-4-amino-7-(1-(2-morpholinoethyl)-1H-pyrazol-4-yl)-1H-pyrazolo[4,3-c]pyridin-3-yl)-N-phenyl benzamide] | 2.6 | 186
C=CC(=O)N1CCC[C@@H](n2nc(-c3ccc(C(=O)Nc4ccccn4)cc3F)c3c(N)nccc32)C1 [Example 40, (R)-4-(1-(1-acryloylpiperidin-3-yl)-4-amino-1H-pyrazolo[4,3-c]pyridin-3-yl)-3-fluoro-N-(pyridin-2-yl)benzamide] | 2.7 | 6.4
C=CC(=O)N1CCC[C@@H](n2nc(C(=O)Nc3nc4ccccc4o3)c3c(N)ncc(Cl)c32)C1 [Example 75, (R)-1-(1-acryloylpiperidin-3-yl)-4-amino-N-(benzo[d]oxazol-2-yl)-7-chloro-1H-pyrazolo[4,3-c]pyridine-3-carboxamide] | 2.2 | 2.4
C=CC(=O)N1CCC[C@@H](n2nc(-c3ccc(C(=O)Nc4ccccc4)cc3)c3c(N)ncc(-c4cnn(C(F)F)c4)c32)C1 [Example 33, (R)-4-(1-(1-acryloylpiperidin-3-yl)-4-amino-7-(1-(difluoromethyl)-1H-pyrazol-4-yl)-1H-pyrazolo[4,3-c]pyridin-3-yl)-N-phenylbenzamide] | 10.2 | 307
C=CC(=O)N1CCC[C@@H](n2nc(-c3ccc(C(=O)Nc4ccccn4)cc3OC)c3c(N)ncc(Cl)c32)C1 [Example 59, (R)-4-(1-(1-acryloylpiperidin-3-yl)-4-amino-7-chloro-1H-pyrazolo[4,3-c]pyridin-3-yl)-3-methoxy-N-(pyridin-2-yl)benzamide] | 3.7 | 26
C=CC(=O)N1CCC[C@@H](n2nc(-c3ccc(C(=O)Nc4ccccc4)cc3)c3c(N)ncc(I)c32)C1 [Example 25, (R)-4-(1-(1-acryloylpiperidin-3-yl)-4-amino-7-iodo-1H-pyrazolo[4,3-c]pyridin-3-yl)-N-phenyl benzamide] | 1.5 | 39.5
C=CC(=O)N1CCCC(n2nc(-c3ccc(Oc4ccccc4)cc3)c3c(N)ncc(I)c32)C1 (stereo not shown) [Example 5, 1-(3-(4-amino-7-iodo-3-(4-phenoxyphenyl)-1H-pyrazolo[4,3-c]pyridin-1-yl)piperidin-1-yl)prop-2-en-1-one] | 6.7 | 19.5
C=CC(=O)N1CCCC(n2nc(-c3ccc(Oc4ccccc4)cc3)c3c(N)nccc32)C1 (stereo not shown) [Example 1, 1-(3-(4-amino-3-(4-phenoxyphenyl)-1H-pyrazolo[4,3-c]pyridin-1-yl)piperidin-1-yl)prop-2-en-1-one] | 1.4 | 37.7
C=CC(=O)N1CCCC(n2nc(-c3ccc(Oc4ccccc4)cc3)c3c(N)ncc(-c4ccccc4)c32)C1 (stereo not shown) [Example 11, 1-(3-(4-amino-3-(4-phenoxyphenyl)-7-phenyl-1H-pyrazolo[4,3-c]pyridin-1-yl)piperidin-1-yl)prop-2-en-1-one] | 11.4 | 224
C=CC(=O)N1CCC[C@@H](n2nc(-c3ccc(C(=O)Nc4ccccc4)cc3)c3c(N)ncc(-c4cc[nH]n4)c32)C1 [Example 29, (R)-4-(1-(1-acryloylpiperidin-3-yl)-4-amino-7-(1H-pyrazol-3-yl)-1H-pyrazolo[4,3-c]pyridin-3-yl)-N-phenylbenzamide] | 3.1 | 556
C=CC(=O)N1CCC[C@@H](n2nc(-c3ccc(C(=O)Nc4ccccc4)cc3)c3c(N)ncc(CO)c32)C1 [Example 27, (R)-4-(1-(1-acryloylpiperidin-3-yl)-4-amino-7-(hydroxymethyl)-1H-pyrazolo[4,3-c]pyridin-3-yl)-N-phenylbenzamide] | 8 | > 500
C=CC(=O)N1CCC[C@@H](n2nc(C(=O)Nc3nc4ccc(Br)cc4o3)c3c(N)nccc32)C1 [Example 73, (R)-1-(1-acryloylpiperidin-3-yl)-4-amino-N-(6-bromobenzo[d]oxazol-2-yl)-1H-pyrazolo[4,3-c]pyridine-3-carboxamide] | 32 | 141
C=CC(=O)N1CCC(n2nc(-c3ccc(Oc4ccccc4)cc3)c3c(N)nccc32)CC1 [Example 3, 1-(4-(4-amino-3-(4-phenoxyphenyl)-1H-pyrazolo[4,3-c]pyridin-1-yl)piperidin-1-yl)prop-2-en-1-one] | 2.7 | > 1000
C=CC(=O)N1CC(n2nc(-c3ccc(C(=O)Nc4ccccn4)cc3F)c3c(N)nccc32)C1 [Example 52] | 1.6 | 51.6
C=CC(=O)N1CCC[C@@H](n2nc(C(=O)OC(C)(C)C)c3c(N)nccc32)C1 [Example 72, (R)-tert-butyl 1-(1-acryloylpiperidin-3-yl)-4-amino-1H-pyrazolo[4,3-c]pyridine-3-carboxylate] | 88.9 | 68.2
C=CC(=O)N1CCC[C@@H](n2nc(-c3ccc(C(=O)Nc4ccccc4)cc3)c3c(N)ncc(-c4cn[nH]c4)c32)C1 [Example 28, (R)-4-(1-(1-acryloylpiperidin-3-yl)-4-amino-7-(1H-pyrazol-4-yl)-1H-pyrazolo[4,3-c]pyridin-3-yl)-N-phenylbenzamide] | 4.4 | 181

From patent publication US11180496B2 (Daewoong Pharmaceutical Co., Ltd., priority 2017, dated 2021)
